According to patent US7135488B2, “Pyrrolyl-thiazole derivatives” (Hoffmann-La Roche Inc., priority 2003, dated 2006):
pIC50: −log10 of the molar value.

Molecular target: T1, human cannabis CB1 receptor (Homo sapiens, UniProt P21554)
T1 construct: expressed in transfected cells; host or cells: human embryonic kidney (HEK) cells, Semliki Forest Virus system, membrane preparation
T1 sequence (P21554 whole entry): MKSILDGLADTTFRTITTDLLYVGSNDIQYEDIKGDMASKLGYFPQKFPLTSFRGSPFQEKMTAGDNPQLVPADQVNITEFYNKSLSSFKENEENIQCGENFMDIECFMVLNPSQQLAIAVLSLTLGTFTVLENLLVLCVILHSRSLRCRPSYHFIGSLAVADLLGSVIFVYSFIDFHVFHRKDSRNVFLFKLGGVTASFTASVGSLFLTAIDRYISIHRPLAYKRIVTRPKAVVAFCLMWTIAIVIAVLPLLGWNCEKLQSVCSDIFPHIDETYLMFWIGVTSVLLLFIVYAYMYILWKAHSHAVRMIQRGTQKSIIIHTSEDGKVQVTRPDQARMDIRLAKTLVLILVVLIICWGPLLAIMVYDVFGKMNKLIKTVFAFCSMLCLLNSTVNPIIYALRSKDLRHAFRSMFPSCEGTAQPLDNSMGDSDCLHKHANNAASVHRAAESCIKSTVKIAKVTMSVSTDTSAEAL
Experiment: CB1 receptor affinity, [3H]-CP-55,940 radioligand binding on HEK cell membranes
Settings: not given
Procedure: The affinity of the compounds of the invention for cannabinoid CB1 receptors was determined using membrane preparations of human embryonic kidney (HEK) cells in which the human cannabis CB1 receptor is transiently transfected using the Semliki Forest Virus system in conjunction with [3H]-CP-55,940 as radioligand. After incubation of a freshly prepared cell membrane preparation with the [3H]-ligand, with or without addition of compounds of the invention, separation of bound and free ligand was performed by filtration over glassfiber filters. Radioactivity on the filter was measured by liquid scintillation counting.
In the case of `CCCCNC(=O)c1cc(-c2csc(C3CCCCC3)n2)n(CC2CCCCC2)c1C` [Example 375, Cyclohexylmethyl-5-(2-cyclohexyl-thiazol-4-yl)-2-methyl-1H-pyrrole-3-carboxylic acid butylamide], the pIC50 was > 5.70.
With `COc1ccc(-c2nc(-c3cc(C(=O)N4CCCCC4)c(C)n3CC3CCCCC3)cs2)cc1` [Example 311, {1-Cyclohexylmethyl-5-[2-(4-methoxy-phenyl)-thiazol-4-yl]-2-methyl-1H-pyrrol-3-yl}-piperidin-1-yl-methanone] the pIC50 was > 5.70.
In the case of `COc1ccc(-c2nc(-c3cc(C(=O)Nc4ncccn4)c(C)n3CC3CCCCC3)cs2)cc1` [Example 324, Cyclohexylmethyl-5-[2-(4-methoxy-phenyl)-thiazol-4-yl]-2-methyl-1H-pyrrole-3-carboxylic acid pyrimidin-2-ylamide], the pIC50 was > 5.70.
For `CCCCNC(=O)c1cc(-c2csc(-c3ccc(OC)cc3)n2)n(Cc2ccccc2)c1C` [Example 333, Benzyl-5-[2-(4-methoxy-phenyl)-thiazol-4-yl]-2-methyl-1H-pyrrole-3-carboxylic acid butylamide], the pIC50 was > 5.70.
With `COc1ccc(-c2nc(-c3cc(C(=O)NN4CCCCC4)c(C)n3CC3CCCCC3)cs2)cc1` [Example 299, Cyclohexylmethyl-5-[2-(4-methoxy-phenyl)-thiazol-4-yl]-2-methyl-1H-pyrrole-3-carboxylic acid piperidin-1-ylamide] the pIC50 was > 5.70.
With `CCCCNC(=O)c1cc(-c2csc(-c3ccc4c(c3)OCO4)n2)n(CC2CCCCC2)c1C` [Example 340, 5-(2-Benzo[1,3]dioxol-5-yl-thiazol-4-yl)-1-cyclohexylmethyl-2-methyl-1H-pyrrole-3-carboxylic acid butylamide] the pIC50 was > 5.70.
With `COc1ccc(-c2nc(-c3cc(C(=O)NCc4ccccn4)c(C)n3CC3CCCCC3)cs2)cc1` [Example 305, Cyclohexylmethyl-5-[2-(4-methoxy-phenyl)-thiazol-4-yl]-2-methyl-1H-pyrrole-3-carboxylic acid (pyridin-2-ylmethyl)-amide] the pIC50 was > 5.70.
In the case of `COc1ccc(-c2nc(-c3cc(C(=O)NC4CCCCC4)c(C)n3CC3CCCCC3)cs2)cc1` [Example 356, Cyclohexylmethyl-5-[2-(4-methoxy-phenyl)-thiazol-4-yl]-2-methyl-1H-pyrrole-3-carboxylic acid cyclohexylamide], the pIC50 was > 5.70.
With `COc1ccc(-c2nc(-c3cc(C(=O)Nc4ccccc4)c(C)n3CC3CCCCC3)cs2)cc1` [Example 315, Cyclohexylmethyl-5-[2-(4-methoxy-phenyl)-thiazol-4-yl]-2-methyl-1H-pyrrole-3-carboxylic acid phenylamide] the pIC50 was > 5.70.
In the case of `CCCCNC(=O)c1cc(-c2csc(-c3ccc(OC)cc3)n2)n(CC2CCCCC2)c1C` [Example 8, Cyclohexylmethyl-5-[2-(4-methoxy-phenyl)-thiazol-4-yl]-2-methyl-1H-pyrrole-3-carboxylic acid butylamide], the pIC50 was > 5.70.

Same assay, conditions: membranes of HEK cells transiently transfected with human CB1 receptor; radioligand [3H]-CP-55,940; read-out: IC50 (affinity for the CB1 receptor)
In the case of `CCCCNC(=O)c1cc(-c2csc(-c3ccc(OC)cc3)n2)n(Cc2ccccn2)c1C` [Example 371, 5-[2-(4-Methoxy-phenyl)-thiazol-4-yl]-2-methyl-1-pyridin-2-ylmethyl-1H-pyrrole-3-carboxylic acid butylamide], the pIC50 was > 5.70.

Tested on: not given
Experiment: not given
Settings: not given
For `CCCCNC(=O)c1cc(-c2csc(-c3ccc([N+](=O)[O-])cc3)n2)n(CC2CCCCC2)c1C` [Example 1, Cyclohexylmethyl-2-methyl-5-[2-(4-nitro-phenyl)-thiazol-4-yl]-1H-pyrrole-3-carboxylic acid butylamide], the melting point was 184 to 187 °C.

Tested on: not given
Experiment: not given
Settings: doses of 5, 10 and 20 mg daily; double blind placebo-controlled study; cited from earlier work
In the case of `Cc1c(C(=O)NN2CCCCC2)nn(-c2ccc(Cl)cc2Cl)c1-c1ccc(Cl)cc1` [SR 141716, Rimonabant], the “body weight compared to placebo” value is listed as “significantly reduced body weight”.
